Test results published in patent US8741836B2, “Polypeptides” (Novo Nordisk A/S, priority 2011, dated 2014).
Starred links: 1 amine or outer side, 2 acyl side, 3 side chain; linkers in the order of their positions; H or OH if unused. Positions of bridges follow the written chain, without caps; N, C: chain ends. Non-standard residues stand in square brackets, D forms with d. Residues, ends and D or L forms follow the SMILES beside them. *: point of attachment. C20 diacid = O=C(O)CCCCCCCCCCCCCCCCCCC(=O)*; C18 diacid = O=C(O)CCCCCCCCCCCCCCCCC(=O)*; γGlu = O=C(O)[C@H](CCC(=O)[*:2])N[*:1]; AEEA = NCCOCCOCC(=O)O

Assay: Assay (III) ThT fibrillation assay for physical stability
Assay type: physicochemical
Conditions: pH 4.0
Source text: Assay (III)—ThT Fibrillation Assays for the Assessment of Physical Stability of Protein formulations Low physical stability of a polypeptide may lead to amyloid fibril formation, which is observed as well-ordered, thread-like macromolecular structures in the sample eventually resulting in gel formation. This has traditionally been measured by visual inspection of the sample. However, that kind of measurement is very subjective and depending on the observer. Therefore, the application of a small molecule indicator probe is much more advantageous. Thioflavin T (ThT) is such a probe and has a distinct fluorescence signature when binding to fibrils [Naiki et al. (1989) Anal. Biochem. 177, 244-249; LeVine (1999) Methods. Enzymol. […], 274-284]. The time course for fibril formation can be described by a sigmoidal curve with the following expression [Nielsen et al. (2001) Biochemistry 40, 6036-6046]: [formula] Here, F is the ThT fluorescence at the time t. The constant t0 is the time needed to reach 50% of maximum fluorescence. […] Few of those intermediates nucleate to form a template onto which further intermediates may assembly and the fibrillation proceeds. The lag-time corresponds to the interval in which the critical mass of nucleus is built up and the apparent rate constant is the rate with which the fibril itself is formed. Sample Preparation Samples were prepared freshly before each assay. Each sample composition is described in each example. The pH of the sample was adjusted to the desired value using appropriate amounts of concentrated NaOH and HClO4 or HCl. Thioflavin T was added to the samples from a stock solution in H2O to a final concentration of 1 μM. Sample aliquots of 200 μl were placed in a 96 well microtiter plate (Packard OptiPlate™-96, white polystyrene). Usually, four or eight replica of each sample (corresponding to one test condition) were placed in one column of wells. The plate was sealed with Scotch Pad (Qiagen). Incubation and Fluorescence Measurement Incubation at given temperature, shaking and measurement of the ThT fluorescence emission were done in a Fluoroskan Ascent FL fluorescence platereader or Varioskan platereader (Thermo Labsystems). The temperature was adjusted to 37° C. The orbital shaking was adjusted to 960 rpm with an amplitude of 1 mm in all the presented data. Fluorescence measurement was done using excitation through a 444 nm filter and measurement of emission through a 485 nm filter. Each run was initiated by incubating the plate at the assay temperature for 10 min. The plate was measured every 20 minutes for a desired period of time. Between each measurement, the plate was shaken and heated as described. Data Handling The measurement points were saved in Microsoft Excel format for further processing and curve drawing and fitting was performed using GraphPad Prism. The background emission from ThT in the absence of fibrils was negligible. The data points are typically a mean of four or eight samples and shown with standard deviation error bars. Only data obtained in the same experiment (i.e. samples on the same plate) are presented in the same graph ensuring a relative measure of fibrillation between experiments. The data set may be fitted to Eq. (1). However, since full sigmodial curves in this case are not always achieved during the measurement time, the degree of fibrillation is expressed as ThT fluorescence tabulated as the mean of the samples and shown with the standard deviation at various time points. Measurement of Initial and Final Concentrations The polypeptide concentration in each of the tested formulations were measured both before application in the ThT fibrillation assay (“Initial”) and after completion of the ThT fibrillation (“After ThT assay”). Concentrations were determined by reverse HPLC methods using a pramlintide standard as a reference. Before measurement after completion 150 μl was collected from each of the replica and transferred to an Eppendorf tube. […]

Structure (SMILES) | ThT pH 4.0 lag time (physical stability in fibrillogenesis assay) [h]
CC[C@H](C)[C@H](NC(=O)[C@@H]1CCCN1C(=O)CNC(=O)[C@H](Cc1ccccc1)NC(=O)[C@H](CC(N)=O)NC(=O)[C@H](CC(N)=O)NC(=O)[C@H](CO)NC(=O)[C@H](CO)NC(=O)[C@H](Cc1c[nH]cn1)NC(=O)[C@H](CCCNC(=N)N)NC(=O)[C@H](CC(C)C)NC(=O)[C@H](Cc1ccccc1)NC(=O)[C@H](CCC(=O)O)NC(=O)[C@H](C)NC(=O)[C@H](CC(C)C)NC(=O)[C@H](CCCNC(=N)N)NC(=O)[C@H](CCC(N)=O)NC(=O)[C@@H](NC(=O)[C@H](C)NC(=O)[C@@H]1CSSC[C@H](NC(=O)[C@H](Cc2c[nH]cn2)NC(=O)CC[C@H](NC(=O)CCCCCCCCCCCCCCCCCCC(=O)O)C(=O)O)C(=O)N[C@@H](CC(N)=O)C(=O)N[C@@H]([C@@H](C)O)C(=O)N[C@@H](C)C(=O)N[C@@H]([C@@H](C)O)C(=O)N1)[C@@H](C)O)C(=O)N[C@@H](CC(C)C)C(=O)N1CCC[C@H]1C(=O)N1CCC[C@H]1C(=O)N[C@H](C(=O)N[C@@H](CC(N)=O)C(=O)N[C@H](C(=O)NCC(=O)N[C@@H](CO)C(=O)N[C@@H](CC(N)=O)C(=O)N[C@H](C(=O)N1CCC[C@H]1C(N)=O)[C@@H](C)O)C(C)C)[C@@H](C)O [Example 90, N-alpha-[(S)-4-Carboxy-4-(19-carboxynonadecanoylamino)butyryl]-[His1,Glu14,Arg17,Pro37]-pramlintide] ({C20 diacid-γGlu}-HCNTATCATQRLAEFLRHSSNNFGPILPPTNVGSNTP-NH2; disulfide 2-7) | >45
CC[C@H](C)[C@H](NC(=O)[C@@H]1CCCN1C(=O)CNC(=O)[C@H](Cc1ccccc1)NC(=O)[C@H](CC(N)=O)NC(=O)[C@H](C)NC(=O)[C@H](CO)NC(=O)[C@H](CO)NC(=O)[C@H](CCCNC(=N)N)NC(=O)[C@H](Cc1cnc[nH]1)NC(=O)[C@H](CC(C)C)NC(=O)[C@H](Cc1ccccc1)NC(=O)[C@H](CCC(=O)O)NC(=O)[C@H](C)NC(=O)[C@H](CC(C)C)NC(=O)[C@H](CCCNC(=N)N)NC(=O)[C@H](CCC(N)=O)NC(=O)[C@@H](NC(=O)[C@H](C)NC(=O)[C@@H]1CSSC[C@H](NC(=O)[C@H](CCCCN)NC(=O)[C@@H](CCCNC(=N)N)NC(=O)[C@@H](CCCNC(=N)N)NC(=O)COCCOCCNC(=O)COCCOCCNC(=O)CC[C@H](NC(=O)CCCCCCCCCCCCCCCCCCC(=O)O)C(=O)O)C(=O)N[C@@H](CC(N)=O)C(=O)N[C@@H]([C@@H](C)O)C(=O)N[C@@H](C)C(=O)N[C@@H]([C@@H](C)O)C(=O)N1)[C@@H](C)O)C(=O)N[C@@H](CC(C)C)C(=O)N1CCC[C@H]1C(=O)N1CCC[C@H]1C(=O)N[C@H](C(=O)N[C@@H](CC(N)=O)C(=O)N[C@H](C(=O)NCC(=O)N[C@@H](CO)C(=O)N[C@@H](CO)C(=O)N[C@H](C(=O)N[C@@H](Cc1ccc(O)cc1)C(N)=O)[C@@H](C)O)C(C)C)[C@@H](C)O [Example 38, N-alpha-[2-(2-{2-[2-(2-{2-[(S)-4-Carboxy-4-(19-carboxyheptadecanoylamino)butyrylamino]ethoxy}ethoxy)acetylamino]ethoxy}ethoxy)acetyl]-D-Arg-D-Arg-[Glu14,His17,Arg18,Ala21,Ser35]-pramlintide] ({C20 diacid-γGlu-AEEA-AEEA}-[dR][dR]KCNTATCATQRLAEFLHRSSANFGPILPPTNVGSSTY-NH2; disulfide 4-9) | >45

Same assay, conditions: pH 4.0, ThT fibrillation assay

Structure (SMILES) | ThT pH 4.0 lag time [h]
CC[C@H](C)[C@H](NC(=O)[C@@H]1CCCN1C(=O)CNC(=O)[C@H](Cc1ccccc1)NC(=O)[C@H](CC(N)=O)NC(=O)[C@H](CC(N)=O)NC(=O)[C@H](CO)NC(=O)[C@H](CO)NC(=O)[C@H](Cc1c[nH]cn1)NC(=O)[C@H](CCCNC(=N)N)NC(=O)[C@H](CC(C)C)NC(=O)[C@H](Cc1ccccc1)NC(=O)[C@H](CCC(=O)O)NC(=O)[C@H](C)NC(=O)[C@H](CC(C)C)NC(=O)[C@H](CCCNC(=N)N)NC(=O)[C@H](CCC(N)=O)NC(=O)[C@@H](NC(=O)[C@H](C)NC(=O)[C@@H]1CSSC[C@H](NC(=O)[C@H](Cc2c[nH]cn2)NC(=O)CC[C@H](NC(=O)CCCCCCCCCCCCCCCCCCC(=O)O)C(=O)O)C(=O)N[C@@H](CC(N)=O)C(=O)N[C@@H]([C@@H](C)O)C(=O)N[C@@H](C)C(=O)N[C@@H]([C@@H](C)O)C(=O)N1)[C@@H](C)O)C(=O)N[C@@H](CC(C)C)C(=O)N1CCC[C@H]1C(=O)N1CCC[C@H]1C(=O)N[C@H](C(=O)N[C@@H](CC(N)=O)C(=O)N[C@H](C(=O)NCC(=O)N[C@@H](CO)C(=O)N[C@@H](CC(N)=O)C(=O)N[C@H](C(=O)N1CCC[C@H]1C(N)=O)[C@@H](C)O)C(C)C)[C@@H](C)O [Example 90, N-alpha-[(S)-4-Carboxy-4-(19-carboxynonadecanoylamino)butyryl]-[His1,Glu14,Arg17,Pro37]-pramlintide] ({C20 diacid-γGlu}-HCNTATCATQRLAEFLRHSSNNFGPILPPTNVGSNTP-NH2; disulfide 2-7) | >45
CC[C@H](C)[C@H](NC(=O)[C@@H]1CCCN1C(=O)CNC(=O)[C@H](Cc1ccccc1)NC(=O)[C@H](CC(N)=O)NC(=O)[C@H](CC(N)=O)NC(=O)[C@H](CO)NC(=O)[C@H](CO)NC(=O)[C@H](Cc1c[nH]cn1)NC(=O)[C@H](CCCNC(=N)N)NC(=O)[C@H](CC(C)C)NC(=O)[C@H](Cc1ccccc1)NC(=O)[C@H](CCC(=O)O)NC(=O)[C@H](C)NC(=O)[C@H](CC(C)C)NC(=O)[C@H](CCCNC(=N)N)NC(=O)[C@H](CCC(N)=O)NC(=O)[C@@H](NC(=O)[C@H](C)NC(=O)[C@@H]1CSSC[C@H](NC(=O)[C@H](CCCCN)NC(=O)[C@H](CCC(=O)O)NC(=O)CC[C@H](NC(=O)CCCCCCCCCCCCCCCCC(=O)O)C(=O)O)C(=O)N[C@@H](CC(N)=O)C(=O)N[C@@H]([C@@H](C)O)C(=O)N[C@@H](C)C(=O)N[C@@H]([C@@H](C)O)C(=O)N1)[C@@H](C)O)C(=O)N[C@@H](CC(C)C)C(=O)N1CCC[C@H]1C(=O)N1CCC[C@H]1C(=O)N[C@H](C(=O)N[C@@H](CC(N)=O)C(=O)N[C@H](C(=O)NCC(=O)N[C@@H](CO)C(=O)N[C@@H](Cc1c[nH]cn1)C(=O)N[C@H](C(=O)N[C@@H](Cc1ccc(O)cc1)C(N)=O)[C@@H](C)O)C(C)C)[C@@H](C)O [Example 62, N-alpha-[(S)-4-Carboxy-4-(17-carboxyheptadecanoylamino)butyryl]-Glu-[Glu14,Arg17,His35]-pramlintide] ({C18 diacid-γGlu}-EKCNTATCATQRLAEFLRHSSNNFGPILPPTNVGSHTY-NH2; disulfide 3-8 (inferred); C-terminus assumed) | 30
CC[C@H](C)[C@H](NC(=O)[C@@H]1CCCN1C(=O)CNC(=O)[C@H](Cc1ccccc1)NC(=O)[C@H](CC(N)=O)NC(=O)[C@H](CC(N)=O)NC(=O)[C@H](CO)NC(=O)[C@H](CO)NC(=O)[C@H](Cc1c[nH]cn1)NC(=O)[C@H](Cc1c[nH]cn1)NC(=O)[C@H](CC(C)C)NC(=O)[C@H](Cc1ccccc1)NC(=O)[C@H](CCC(=O)O)NC(=O)[C@H](C)NC(=O)[C@H](CC(C)C)NC(=O)[C@H](CCCNC(=N)N)NC(=O)[C@H](CCC(N)=O)NC(=O)[C@@H](NC(=O)[C@H](C)NC(=O)[C@@H]1CSSC[C@H](NC(=O)[C@H](CCCCN)NC(=O)CC[C@H](NC(=O)CCCCCCCCCCCCCCCCCCC(=O)O)C(=O)O)C(=O)N[C@@H](CC(N)=O)C(=O)N[C@@H]([C@@H](C)O)C(=O)N[C@@H](C)C(=O)N[C@@H]([C@@H](C)O)C(=O)N1)[C@@H](C)O)C(=O)N[C@@H](CC(C)C)C(=O)N1CCC[C@H]1C(=O)N1CCC[C@H]1C(=O)N[C@H](C(=O)N[C@@H](CC(N)=O)C(=O)N[C@H](C(=O)NCC(=O)N[C@@H](CO)C(=O)N[C@@H](CC(N)=O)C(=O)N[C@@H](Cc1c[nH]cn1)C(=O)N[C@@H](Cc1ccc(O)cc1)C(N)=O)C(C)C)[C@@H](C)O [Example 114, N-alpha-[(S)-4-Carboxy-4-(19-carboxynonadecanoylamino)butyryl]-[Glu14,His17,His36]-pramlintide] ({C20 diacid-γGlu}-KCNTATCATQRLAEFLHHSSNNFGPILPPTNVGSNHY-NH2; disulfide 2-7 (inferred)) | >45
CC[C@H](C)[C@H](NC(=O)[C@@H]1CCCN1C(=O)CNC(=O)[C@H](Cc1ccccc1)NC(=O)[C@H](CC(N)=O)NC(=O)[C@H](CC(N)=O)NC(=O)[C@H](CO)NC(=O)[C@H](CO)NC(=O)[C@H](Cc1c[nH]cn1)NC(=O)[C@H](Cc1c[nH]cn1)NC(=O)[C@H](CC(C)C)NC(=O)[C@H](Cc1ccccc1)NC(=O)[C@H](CCC(=O)O)NC(=O)[C@H](C)NC(=O)[C@H](CC(C)C)NC(=O)[C@H](CCCNC(=N)N)NC(=O)[C@H](CCC(N)=O)NC(=O)[C@@H](NC(=O)[C@H](C)NC(=O)[C@@H]1CSSC[C@H](NC(=O)[C@H](CCCCN)NC(=O)[C@H](CO)NC(=O)CC[C@H](NC(=O)CCCCCCCCCCCCCCCCCCC(=O)O)C(=O)O)C(=O)N[C@@H](CC(N)=O)C(=O)N[C@@H]([C@@H](C)O)C(=O)N[C@@H](C)C(=O)N[C@@H]([C@@H](C)O)C(=O)N1)[C@@H](C)O)C(=O)N[C@@H](CC(C)C)C(=O)N1CCC[C@H]1C(=O)N1CCC[C@H]1C(=O)N[C@H](C(=O)N[C@@H](CC(N)=O)C(=O)N[C@H](C(=O)NCC(=O)N[C@@H](CO)C(=O)N[C@@H](Cc1c[nH]cn1)C(=O)N[C@H](C(=O)N[C@@H](Cc1ccc(O)cc1)C(N)=O)[C@@H](C)O)C(C)C)[C@@H](C)O [Example 85, N-alpha-[(S)-4-Carboxy-4-(19-carboxynonadecanoylamino)butyryl]-Ser-[Glu14,His17,His35]-pramlintide] ({C20 diacid-γGlu}-SKCNTATCATQRLAEFLHHSSNNFGPILPPTNVGSHTY-NH2; disulfide 3-8) | >45
